Results published in US20100240595A1, “Improved Antitumoral Treatments” (PHARMA MAR ,S.A., priority 2007, published 2010).
Starred links: 1 amine or outer side, 2 acyl side, 3 side chain; linkers in the order of their positions; H or OH if unused. Positions of bridges follow the written chain, without caps; N, C: chain ends. Non-standard residues stand in square brackets, D forms with d. Residues, ends and D or L forms follow the SMILES beside them. *: point of attachment. X1 = CC[C@H](C)[C@@H](N[*:1])[C@@H](O)CC(=O)O[C@H](C(=O)[C@H](C)C(=O)[*:2])C(C)C; NMeY = CN[C@@H](Cc1ccc(O)cc1)C(=O)O; dNMeL = CN[C@H](CC(C)C)C(=O)O; Pyruvoyl = CC(=O)C(=O)*

Experiments:
MIA PaCa-2 cell line = test: In vitro cytotoxicity, MTS/PMS assay, single agents; assay type: cell-based; settings: Homo sapiens; MIA PaCa-2, 96 hours exposure, MTS/PMS viability
Experimental: (§1) PANC-1 (ATCC CRL-1469) and MIA PaCa-2 (ATCC CRL-1420) cell lines obtained from ATCC (Rockville, Md.) were used to check the cytotoxicity of Aplidine and Gemcitabine hydrochloride salt in human pancreas carcinoma cell lines. These cell lines were maintained in Dulbecco's modified Eagle medium with 4 mmol/L glutamine containing 10% Fetal Bovine Serum (FBS), and 1% Penicillin/Streptomycin solution, at 37° C. in humidified atmosphere of 5% CO2.
(§2) Four thousand cells/well were plated in a 96/wells tissue culture plate and exposed to different concentrations of Aplidine or Gemcitabine for 96 hours at 37° C. and 5% CO2. At the end of the incubation the viability of the cells was tested with the MTS/PMS assay (Riss T L and Moravec R A, Mol. Biol. Cell, 1992, 3, 184a). Cell viability was correlated to the amount of formazan quantified spectrophotometrically at 450 nm (reference wavelength 670 nm) using a microplate reader (SpectraMax® Plus^384, Molecular Devices, Sunnyvale, Calif.).

PANC-1 cell line = test: as above; assay type: cell-based; settings: Homo sapiens; PANC-1, 96 hours exposure, MTS/PMS viability
Experimental: as §1, §2

[1] = test system: AML and ALL samples from pediatric patients; settings: 5 nM; de novo or relapsed ALL and AML; cited from earlier work
PANC-1 cells = test: Pancreatic cancer xenograft model, tumor volume; assay type: in vivo, NCR Nu/Nu mice; settings: median tumor volume
Text: Pathogen-free NCR Nu/Nu mice, of 5 to 6 weeks old and purchased from Taconic Farms (Germantown, N.Y.), were housed in microisolator cages under specific pathogen-free conditions. The animals were provided autoclaved food and water ad libitum.
Mice were inoculated subcutaneously in the right flank with 0.5×10^7 PANC-1 cells containing 10% matrigel.
As mentioned before, the vehicle used for the administration of Aplidine contained 15% Cremophor EL/15% Ethanol/70% WFI diluted in saline, whereas Gemcitabine was prepared in saline in order to be administered.
Both drugs were administered intra-peritoneally. […] Tumor size and weight of the animals were recorded every other day, starting from the first day of treatment. Tumor volume was calculated according to the formula:
tumor volume (mm^3)=(longer diameter)×[(shorter diameter)^2]/2.
Comparison of the median tumor volume in the treatment groups (T) to the median tumor volume in the control group (C) [T/C] on day 20 was used for evaluation of tumor efficacy. % T/C [T/C×100%] for each treatment is reported in Table 3.

Structure (SMILES)	IC50 (MIA PaCa-2 cell line)	IC50 (PANC-1 cell line)	In vitro cytotoxic activity [1]	% T/C on day 20 (PANC-1 cells; Aplidine 0.6 mg/kg on day 1 and 8, intra-peritoneally)	% T/C on day 20 (PANC-1 cells; Gemcitabine 250 mg/kg on day 1, 4, 8 & 12, intra-peritoneally)
CC[C@H](C)[C@H]1NC(=O)[C@@H](NC(=O)[C@@H](CC(C)C)N(C)C(=O)[C@@H]2CCCN2C(=O)C(C)=O)[C@@H](C)OC(=O)[C@H](Cc2ccc(OC)cc2)N(C)C(=O)[C@@H]2CCCN2C(=O)[C@H](CC(C)C)NC(=O)[C@@H](C)C(=O)[C@H](C(C)C)OC(=O)C[C@@H]1O [Aplidine] (Pyruvoyl-P[dNMeL]T[X1]LP[NMeY](Me); ester 3-C)	1 nM	1 nM	cytotoxic activity	23%	
Nc1ccn([C@@H]2O[C@H](CO)[C@@H](O)C2(F)F)c(=O)n1 [Gemcitabine, reference compound]	150 nM	1000 nM			45%
